In patent publication US11434490B2, “Fluorogen-binding RNA aptamers” (CENTRE NATIONAL DE LA RECHERCHE SCIENTIFIQUE, priority 2017, dated 2022):
Read-outs that look alike come from different tables or passages of the source.

How the values were obtained:
[1] = Salt dependence of Mango/TO1-Biotin fluorescence: K+ titration; assay type: binding; settings: for Kd / Hill Coefficients K^+: 25 nM RNA, 50 nM TO1-Biotin, 10 mM Tris pH 7.2; for Hill Coefficients K^+: * estimated from initial rise of fluorescence
Protocol: (§1) FIG. 10|Salt dependence of new Mango variants. Dependence of fluorescence of each Mango for (a) K^+, (b) Na^+ in place of K^+, and (c) Mg^2+ ions in a buffer containing 140 mM K^+. […] 10 mM Tris buffer (pH 7.2) was used in place of phosphate of the WB buffer to avoid monovalent counter ions. Color-coding is as follows: Black—Mango I, Blue—Mango II, Green—Mango III, Orange—Mango IV. Hill coefficients are fitted to dark points. Points in lighter shade have been excluded from the fit. Error bars are standard deviations of three replicates.

[2] = Salt dependence of Mango/TO1-Biotin fluorescence: Na+ in place of K+; assay type: binding
Protocol: as §1

[3] = Salt dependence of Mango/TO1-Biotin fluorescence: Mg2+ titration; settings: in the presence of potassium; Mg2+ 256 mM
Protocol: as §1

[4] = Brightness and photophysics of Mango fluorophore complexes; assay type: physicochemical
Text: (§2) FIG. 2|RNA Mango I, II, III and IV core sequences and their properties. (a) Color coded alignment of RNA Mango I, II, III and IV. G residues in yellow are protected from DMS cleavage (data from panel d) when folded in the presence of fluorophore. Quadruplex stacks and their associated propeller sequences are numbered 1 through 4. The GAAA isolation motif of Mango I, together with two adenines essential for binding, are shown in green and red respectively. Purple shading represents a flanking stem region common for all four Mango aptamers. Schematic: A tertiary structure schematic of Mango I, showing tier 1, 2 and 3 of its quadruplex structure (T1, T2 and T3) and color-coded as in (a). […] Bottom: Top view of the Mango I core (PBD ID: 5V3F), showing the T3 tier of the quadruplex and relevant propeller residues, color coding matches the schematic and panel a. […] KD values are shown next to each titration. (c) Same as for panel b but using 20 nM TO3-Biotin. Data for panels b and c have been normalized such that Mango I has a maximum fluorescence of 1. Error bars are standard deviation of three replicates. (d) DMS chemical protection patterns for the four Mango aptamers. 3′ end-labelled RNA (terminal ^32pCp shown as a black asterisk) was subjected to DMS chemical modification followed by reduction by NaBH4 and aniline cleavage as described in the methods. […] Legend: T1—denatured T1 ladder; OH—partial alkaline hydrolysis ladder; (−) DMS—denatured reaction with ddH2O added in place of DMS; 80° C.
FIG. 13|Photophysics: excitation/emission. (a) Excitation (dark curve) and emission (light curve) spectra of each Mango. All Mangos have Δex max=510 nm and Δem max=535 nm. Color-coding is as follows: Black—Mango I, Blue—Mango II, Green—Mango III, Red—Mango IV.
(§3) Fluorescence data was gathered using a Varian Cary Eclipse Spectrophotometer unless otherwise stated. […] Fluorescence was measured at the maximum excitation and emission wavelengths of each complex (FIG. 13).

[5] = Formaldehyde resistance assay; assay type: physicochemical; settings: in vitro, TO1-Biotin
Protocol: FIG. 15|Effect of formaldehyde on Mango fluorescence. […] In (b) RNA is incubated with the corresponding amounts of formaldehyde first for one hour, then TO1-Biotin is added. Data for each panel is normalized to RFU at the 0% formaldehyde, 0 min point.
RNA Mango aptamers were incubated with TO1-Biotin in WB buffer for at least one hour until equilibrium fluorescence was reached. […] Fluorescence was measured as a kinetic run at a rate of 2 readings per minute using a Varian Cary Eclipse Fluorescence Spectrophotometer, ex/em=510±2.5/535±5 nm.

[6] = Photobleaching under constant illumination; settings: identical illumination conditions, on average
Protocol: FIG. 16|Formation of 5S-Mango foci and their dynamics in live cells. (a) 5S-Mango IV imaged post cell fixation at 5, 15, 30 and 60 mins after transfection using Lipofectamine based CRISPRMAX transfection reagent. […] (c) Root mean-squared displacement (RMSD) of three observed foci with different diffusive behaviors, fast (Green), slow (Blue) and static (Red) shown in Video 3. Scale bars are 10 μm and arrows indicate foci of interest. (d) Normalized photobleaching traces of 5S-F30-Mango I and IV compared to 5S-F30-dBroccoli under constant illumination with an exposure time of 200 ms. Photobleaching half-lives are stated in the table adjacent and were calculated from an exponential fit of each curve.

[7] = read-out: Kd for TO1-Biotin, original RNA Mango, earlier work, cited from earlier work
[8] = original RNA Mango, earlier work; read-out: Kd for TO3-Biotin; cited from earlier work
[9] = Fluorescence titration, binding affinity for TO1-Biotin
Text: as §2, §3
Where F([RNA]) is the fluorescence as a function of RNA concentration [RNA], Fmax is the maximal fluorescence of the bound complex and Funbound the fluorescence of the unbound fluorophore. When the fluorescence of Funbound was undetectable, it was set to zero.
Fluorescence readings were recorded using a Varian Cary Eclipse Spectrophotometer set to measure at the maximum excitation and emission wavelengths of the Mango II aptamer dye complex. Fluorescence titrations were performed in Mango selection buffer (WB: 140 mM KCl, 1 mM MgCl2, 10 mM NaH2PO4 pH 7.2, 0.05% Tween-20).

Circular template = test: Rolling circle transcription of Mango III; assay type: biochemical; settings: room temperature, excess TO1-Biotin
Text: FIG. 33|Rolling circle transcription of Mango III.
FIG. 34|Rolling circle transcription of Mango III. Circular construct represented here was used in FIG. 33. Purple: T7 binding site, red and orange template hybridization arms (ligation site between them). Blue Mango sequence.
This illustrates that in select embodiments Mango aptamers may be used for detection of nucleic acids in a two-step fluorescence-based detection system using the Mango aptamers as the reporter. […] Nucleic acid concentration can be discerned by a simple fluorescence reading. In these assays, the Mango III fluorescence emerged rapidly upon the addition of the RNA polymerase (FIG. 32).

[10] = Brightness response to a fluorophore series; assay type: biochemical; settings: 500 nM RNA, 10 nM fluorophore
Protocol: FIG. 53|Brightness response of MI, MII, MIII mutants and MIV to a fluorophore series. Single fluorescence point reads done in triplicate. 500 nM RNa was incubated with 10 nM fluorophore at room temperature for ˜1 h to allow folding of the RNA aptamers in 1×WB (140 mM KCl, 1 mM MgCl2, 10 mM NaH2PO4, pH 7.2.

HEK293T cells = test: Cellular imaging of transfected Mango tagged RNAs; assay type: cell-based; settings: against 5S-F30-Mango-IV
Protocol: HEK293T cells were grown in Dulbecco Modified Eagle's Medium containing 10% Fetal Bovine Serum, 2 mM D-Glucose, 2 mM L-Glutamine, 1 mM Sodium Pyruvate and 100 U/ml Penicillin/Streptomycin (Thermo Fisher) and maintained at 37° C. with 5% CO2 in a humidified incubator. Cells used for imaging were cultured in Ibidi glass bottomed 8-well chamber slides (Ibidi GmbH).
RNA was transfected directly into 8-well chamber slides using the Lipofectamine-based CRISPRMAX reagent following the manufacturers guidelines (Invitrogen). Initially 125 nM RNA containing 10 mM Sodium Phosphate buffer (pH 7.2), 100 mM KCl and 1 mM MgCl2 was incubated at room temperature followed by a 1:1 dilution in OptiMEM prior to transfection. The RNA transfected was incubated at 37° C. for 1 hour in complete growth medium.
Cells were fixed in PBS containing 4% paraformaldehyde for 10 min on ice (Thermo Fisher) followed by permeabilization in 0.2% Triton X-100 for 10 min at room temperature. Cells were first blocked (2% BSA in PBS) for 30 min followed by primary antibody (1:50-1:500 dilutions) incubation for 120 min in blocking solution.
Primary antibodies used here were: Anti-Ribosomal Protein S6 (MAB5436, R&D Systems), Anti-ATP5B (ab14730, Abcam), Anti-GW182 (ab7052, Abcam), Anti-EEA-1 (ab70521, Abcam), Anti-LSm3 (NBP2-14206, Novus Biologicals), Anti-TIAR (sc-398372, Santa Cruz). Secondary antibodies used were Donkey Anti-mouse and Donkey Anti-Rabbit Alexa Fluor 680 (Molecular Probes). Primary antibodies were washed three times for 20 min each in blocking solution followed by incubation with secondary antibody at 1:500 dilution for 60 min, which was subsequently washed as above.
To visualize the nuclear boundary in live cells, a plasmid expressing a fluorescently tagged histone protein (EBFP2-H2B-6, Addgene plasmid 55243) was transfected using FuGene 6 (Promega) 24 h prior to RNA transfection. […] Following incubation of the RNA transfection, the cells were washed once with PBS and replaced with live-cell imaging media (Fluorobrite DMEM supplemented with 20 mM HEPES, Invitrogen). Live and fixed cell images were taken using a Zeiss Elyra wide-field microscope by exciting at 405 nm (Blue), 488 nm (Green) and 642 nm (Far-Red) and detecting at 420-480 nm, 495-550 nm and >650 nm, respectively. Live cells were maintained at 37° C. with 5% CO2 in a stage top incubator (Tokai Hit). Images were processed using FIJI and spot detection analysis was performed on each maximum projection by the spot detector plugin in the ICY image analysis software, which detects significant foci with a pixel area 3×3 pixels.

[11] = In vitro fluorescence of Mango tagged RNA constructs; assay type: biochemical; settings: 40 nM TO1-Biotin, 200 nM RNA
Text: FIG. 14|RNA scaffold diagrams. Diagrams of the 5S-Mango and U6-Mango constructs synthesized (sequences in Table 2) and their fluorescence emission as a function of wavelength after excitation at 505 nm, compared to unmodified Mango I-IV.
DNA encoding the F30 folding scaffold was modified to incorporate the Mango RNA sequences and ordered from (Intergrated DNA Technologies). The DNA was amplified by PCR to incorporate 5′ SalI and 3′ Xbal restriction sites. PCR products were digested using Fast Digest enzymes (Thermo Fisher) and ligated into SalI/Xbal linearized and Shrimp Alkaline Phosphotase (NEB) treated pAV5S-F30-2xdBroccoli (Addgene plasmid 66845, a gift from Dr S. Jaffrey). DNA encoding the full 5S-F30-Mango sequence was PCR amplified and a 5′ T7 RNA polymerase promoter introduced. DNA was transcribed in vitro with T7 RNA polymerase (NEB) at 37° C. for 16 h in 40 mM Tris-HCl, 30 mM MgCl2, 2 mM spermidine, 1 mM dithiothreitol, 5 mM rNTPs, 1 U/μl E. coli inorganic pyrophosphotase, 4 U/μl T7 RNA polymerase (pH 7.9). RNA was purified from an 8 M urea denaturing polyacrylamide […] gel followed by elution in RNA elution buffer (40 mM Tris-HCl pH 8.0, 0.5 M sodium acetate, 0.1 mM EDTA) and ethanol precipitation.

[12] = Na+ in place of K+, 25 nM RNA, 50 nM TO1-Biotin

Q: With “Mango-I: original RNA Mango aptamer; core SEQ ID NO: 1 GAAGGGACGGUGCGGAGAGGAGA (chemistry not given here) [reference compound]” as the substance, how does the Kd [1] read?
A: 48 ± 5 mM

Q: What about the “Hill Coefficients K^+” value [1] of the same substance?
A: 1.2 ± 0.1

Q: And the “fluorescence in the presence of sodium ions” value [2]?
A: did not fluoresce appreciably

Q: What about the “effect of high levels of Mg^2+ on fluorescence” value [3] of the same substance?
A: strongly inhibited

Q: What about the “quantum yield of the TO1-Biotin complex” value [4] of the same substance?
A: 0.14

Q: What about the “brightness of the TO1-Biotin bound complex” value [4] of the same substance?
A: 11,000 M^−1cm^−1

Q: And the resistance to formaldehyde [5]?
A: substantially resistant to formaldehyde

Q: And the “bleaching half-lives longer than RNA Spinach” value [6]?
A: 10 times

Q: What about the Kd [7] of the same substance?
A: ~0.003 µM

Q: And the Kd ([7]; listed as RNA Mango)?
A: 0.0031 µM

Q: What about the Kd [8] of the same substance?
A: 0.008 µM

Q: For “Mango-III: minimal construct engineered from isolate R5-NMM-20; two-tiered G-quadruplex aptamer”, which “TO1-Biotin binding affinity (in words)” value [9] is on record?
A: slightly weaker affinities than Mango-I

Q: And the Kd [1]?
A: 0.4 ± 0.1 mM

Q: What about the “Hill Coefficients K^+” value [1] of the same substance?
A: 1.0 ± 0.8*

Q: And the “higher affinity of the fluorescence response to potassium and sodium” value ([1]; against the other Mangos)?
A: two order of magnitude

Q: What about the “Hill Coefficients Na^+” value [2, 12] of the same substance?
A: 0.5 ± 0.5

Q: What about the Kd [2, 12] of the same substance?
A: 0.8 ± 0.3 mM

Q: What about the “effect of high levels of Mg^2+ on fluorescence” value [3] of the same substance?
A: only modestly inhibited

Q: And the “brighter than enhanced GFP (EGFP)” value ([4]; TO1-Biotin bound complex)?
A: 1.3 times

Q: What about the “brightness of the TO1-Biotin bound complex” value [4] of the same substance?
A: 43,000 M^−1cm^−1

Q: What about the “brighter than Mango-I” value ([4]; TO1-Biotin, FIG. 2b) of the same substance?
A: 4 fold

Q: And the sensitivity (Circular template)?
A: 5 nM

Q: And the “binding of TO1 fluorophore derivatives” value [10]?
A: bound to a broad set of TO1 fluorophore derivatives

Q: What does the source list for “U6-Mango-IV: U6 snRNA with Mango-IV in an internal stem loop; SEQ ID NO: 6896 [Mango U6-Mango-IV]”?
A: increase of the fraction of nuclear foci (HEK293T cells): ~9 fold; fluorescence intensity in vitro [11]: comparable fluorescence intensity to Mango IV alone
